What was measured:
[1] = tested on: eggs of Spodoptera littoralis; assay: Ovicidal activity, sprayed eggs (Test 1 (c)), toxicity vs parathion; type: in vivo, Egyptian cotton leafworm (Spodoptera littoralis); settings: eggs less than 24 hours old; approximately five days; 50% mortality basis; standard parathion = 100
Experimental: (§1) The insecticidal and ovicidal activities of the compounds of the invention were assessed employing the pests, Egyptian cotton leafworm (Spodoptera littoralis, S.l.), mosquito (Aedes aegypti, A.a.) and eggs of Spodoptera littoralis, S.l.ov.
(§2) The test methods used for each species are described below. In each case the tests were conducted under normal insectary conditions (28° C.[…]; fluctuating light and humidity).
(§3) In each instance, the toxicity of the compound of the invention was compared to that of a standard pesticide (parathion), its relative toxicity then being expressed in terms of the relationship between the amount of compound of the invention and the amount of the standard pesticide required to produce the same percentage (50%) of mortality in the test insect. By assigning the standard pesticide an arbitrary rating of 100, the toxicities of the compounds of the invention were expressed in terms of the toxicity indices, which compares the toxicity of the compounds of the invention with that of the standard pesticide. That is to say, a test compound having a Toxicity Index of 50 would be half as active, while one having a Toxicity Index of 200 would be twice as active as the standard pesticide.
(c) Spodoptera littoralis (ovicide)--Solutions as described in (a) above were prepared. Eggs less than 24 hours old were obtained as follows. Adult Spodoptera littoralis were held in large plastic cylinders containing blotting paper on which the moths laid their batches of eggs. Egg batches containing approximately 60-70 eggs were cut from the blotting paper with a 1 cm surround. These were placed, eggs uppermost, on filter paper in the deeper half of 5 cm disposable petri dishes and each batch of eggs was then sprayed with a different test solution or the control solution. The dishes were covered until the control eggs had hatched, approximately five days. The percentage ovicidal mortality was then calculated.

Aedes aegypti larvae = assay: Insecticidal activity, larvae in treated water (Test 1 (b)), toxicity vs parathion; type: in vivo, mosquito (Aedes aegypti); set-up: key: Toxicity Index: parathion = 100; 200 = twice as active, 50 = half; settings: early fourth instar larvae; final mortality when all larvae emerged as adults or died; 50% mortality basis; standard parathion = 100
Experimental: as §1, §2, §3
(b) Aedes aegypti--Several solutions of the test compound of varying concentration were prepared in acetone. 100 microliter quantities were added to 100 milliliters of tap water, the acetone being allowed to evaporate off. Ten early fourth instar larvae were placed in the test solution; after 48 hours the (surviving) larvae were fed with animal feed pellets, and the final percentage mortality assessed when all the larvae had either pupated and emerged as adults or died.

[2] = tested on: Spodoptera littoralis larvae; assay: Insecticidal activity, sprayed diet (Test 1 (a)), toxicity vs parathion; type: in vivo, Egyptian cotton leafworm (Spodoptera littoralis); settings: second instar larvae; mortality 7 days after spraying; 50% mortality basis; standard parathion = 100
Experimental: as §1, §2
as §3, with “pesticide.” for “pesticide. That is to say, a test compound having a Toxicity Index of 50 would be half as active, while one having a Toxicity Index of 200 would be twice as active as the standard pesticide.”
(a) Spodoptera littoralis--A solution or suspension of the test compound was made up over a range of concentrations in 10% acetone/water containing 0.025% Triton X100 (as surfactant). These solutions were sprayed using a logarithmic spraying machine onto petri dishes containing a nutritious diet on which the Spodoptera littoralis larvae had been reared. When the spray deposit had dried each dish was infested with 10 second instar larvae. Mortality assessments were made 7 days after spraying.

Row | SMILES | Toxicity Index S.l.ov. [1] | Toxicity Index A.a. (Aedes aegypti larvae) | Toxicity Index S.l. [2]
1 | O=C(NC(=O)N(Sc1ccc([N+](=O)[O-])cc1[N+](=O)[O-])c1ccc(Cl)cc1)c1c(F)cccc1F [Example 13] | 1800 | 100 | 35
2 | O=C(NC(=O)N(Sc1ccc([N+](=O)[O-])cc1[N+](=O)[O-])c1ccc(OC(F)(F)F)cc1)c1ccccc1Cl [Example 2, 2-Chloro-N-[[[4-(trifluoromethoxy)phenyl]-N-[(2,4-dinitrophenyl)thio]amino]carbonyl]benzamide] | 3300 | 82 | 150
3 | CC(C)c1ccccc1SN(C(=O)NC(=O)c1ccccc1Cl)c1ccc(OC(F)(F)F)cc1 [Example 32] | 2000 | 28 | 88
4 | Cc1cccc(SN(C(=O)NC(=O)c2c(F)cccc2F)c2ccc(Cl)cc2)c1 [Example 10] | 1400 | 24 | 20
5 | O=C(NC(=O)N(Sc1ccccc1[N+](=O)[O-])c1cc(Cl)c(Oc2ccc([N+](=O)[O-])cc2)c(Cl)c1)c1c(F)cccc1F [Example 38] | 0 | 30 | 330
6 | Cc1ccc(SN(C(=O)NC(=O)c2ccccc2Cl)c2ccc(OC(F)(F)F)cc2)cc1 [Example 23] | 1500 | 145 | 140
7 | O=C(NC(=O)N(Sc1ccc(Br)cc1)c1ccc(C(F)(F)F)cc1)c1c(F)cccc1F [Example 19] | 1500 | 10 | 240
8 | Cc1ccc(SN(C(=O)NC(=O)c2c(F)cccc2F)c2ccc(C(F)(F)F)cc2)cc1 [Example 18] | 2300 | 170 | 300
9 | O=C(NC(=O)N(Sc1ccc(Cl)cc1)c1ccc(Oc2ccc(C(F)(F)F)cc2Cl)cc1)c1ccccc1Cl [Example 30] | 0 | 220 | 670
10 | O=C(NC(=O)N(Sc1ccccc1[N+](=O)[O-])c1ccc(C(F)(F)F)cc1)c1c(F)cccc1F [Example 20] | 1800 | 180 | 160
11 | O=C(NC(=O)N(Sc1ccc(Br)cc1)c1ccc(Cl)cc1)c1c(F)cccc1F [Example 37] | 850 | 26 | 51
12 | Cc1ccccc1SN(C(=O)NC(=O)c1c(F)cccc1F)c1ccc(C(F)(F)F)cc1 [Example 16] | 2700 | – | 550
13 | Cc1cccc(SN(C(=O)NC(=O)c2c(F)cccc2F)c2ccc(C(F)(F)F)cc2)c1 [Example 17] | 2800 | 160 | 260
14 | O=C(NC(=O)N(Sc1ccc(Cl)cc1)c1ccc(OC(F)(F)F)cc1)c1ccccc1Cl [Example 33] | 1300 | 44 | 57
15 | Cc1ccccc1SN(C(=O)NC(=O)c1ccccc1Cl)c1ccc(Oc2ccc(C(F)(F)F)cc2Cl)cc1 [Example 31] | 0 | 240 | 960
16 | CC(C)(C)c1ccc(SN(C(=O)NC(=O)c2c(F)cccc2F)c2ccc(C(F)(F)F)cc2)cc1 [Example 26] | 8 | 82 | 580
17 | Cc1ccccc1SN(C(=O)NC(=O)c1ccccc1Cl)c1ccc(OC(F)(F)F)cc1 [Example 4, 2-Chloro-N-[[[4-(trifluoromethoxy)phenyl]-N-[(2-methylphenyl)thio]amino]carbonyl]benzamide] | 2200 | 77 | 110
18 | O=C(NC(=O)N(Sc1ccc([N+](=O)[O-])cc1)c1ccc(Cl)cc1)c1c(F)cccc1F [Example 28] | 720 | 6 | 54

Row | SMILES | Toxicity Index S.l.ov. [1] | Toxicity Index A.a. (Aedes aegypti larvae) | Toxicity Index S.l. [2]
19 | O=C(NC(=O)N(Sc1ccc([N+](=O)[O-])cc1[N+](=O)[O-])c1ccc(C(F)(F)F)cc1)c1c(F)cccc1F [Example 22] | 2300 | 51 | 220
20 | O=C(NC(=O)N(SC(Cl)(Cl)Cl)c1ccc(C(F)(F)F)cc1)c1c(F)cccc1F [Example 6, 2,6-Difluoro-N-[[[(trichloromethyl)thio]-N-[4-(trifluoromethyl)phenyl]amino]carbonyl]benzamide] | 400 | 34 | 260
21 | O=C(NC(=O)N(Sc1ccc(Cl)cc1)c1ccc(C(F)(F)F)cc1)c1c(F)cccc1F [Example 27] | 2200 | 21 | 220
22 | O=C(NC(=O)N(Sc1ccccc1[N+](=O)[O-])c1ccc(Oc2ccc(C(F)(F)F)cc2Cl)cc1)c1ccccc1Cl [Example 35] | 0 | 82 | 2500
23 | O=C(NC(=O)N(Sc1ccccc1)c1ccc(Oc2ccc(C(F)(F)F)cc2Cl)cc1)c1ccccc1Cl [Example 29] | 0 | 330 | 930
24 | O=C(NC(=O)N(Sc1ccc([N+](=O)[O-])cc1)c1ccc(OC(F)(F)F)cc1)c1ccccc1Cl [Example 24] | 11 | 31 | 54
25 | Cc1ccc(SN(C(=O)NC(=O)c2c(F)cccc2F)c2ccc(Cl)cc2)cc1 [Example 11] | 680 | 25 | 23
26 | O=C(NC(=O)N(Sc1ccccc1[N+](=O)[O-])c1ccc(Cl)cc1)c1c(F)cccc1F [Example 5, N-[[[4-Chlorophenyl]-N-[(2-nitrophenyl)thio]amino]carbonyl]-2,6-difluorobenzamide] | 0-4 | 220 | 90
27 | O=C(NC(=O)N(Sc1ccccc1)c1ccc(C(F)(F)F)cc1)c1c(F)cccc1F [Example 15] | 1800 | 50 | 170
28 | O=C(NC(=O)N(Sc1ccc([N+](=O)[O-])cc1)c1ccc(C(F)(F)F)cc1)c1c(F)cccc1F [Example 21] | – | 13 | 96
29 | Cc1ccc(SN(C(=O)NC(=O)c2ccccc2Cl)c2ccc(Oc3ccc(C(F)(F)F)cc3Cl)cc2)cc1 [Example 34] | 0 | 130 | 1200
30 | Cc1ccccc1SN(C(=O)NC(=O)c1c(F)cccc1F)c1ccc(Cl)cc1 [Example 9] | 1400 | 31 | 43
31 | O=C(NC(=O)N(Sc1ccc(Cl)cc1)c1ccc(Cl)cc1)c1c(F)cccc1F [Example 12] | – | 14 | 17
32 | O=C(NC(=O)N(Sc1ccccc1)c1ccc(Cl)cc1)c1c(F)cccc1F [Example 8] | 480 | 22 | 16
33 | O=C(NC(=O)N(SC(Cl)(Cl)Cl)c1ccc(OC(F)(F)F)cc1)c1ccccc1Cl [Example 25] | 1300 | 28 | 140
34 | O=C(NC(=O)N(SC(Cl)(Cl)Cl)c1ccc(Oc2ccc(C(F)(F)F)cc2Cl)cc1)c1ccccc1Cl [Example 7, 2-Chloro-N-[[[4-[2-chloro-4-(trifluoromethyl)phenoxy]phenyl]-N-[(trichloromethyl)thio]amino]carbonyl]benzamide] | 0 | 55 | 1800
35 | O=C(NC(=O)N(SC(Cl)(Cl)Cl)c1ccc(Cl)cc1)c1c(F)cccc1F [Example 14] | 560 | 6 | 10

— patent publication US4497822A, “Insecticidal N-benzoyl-N'-phenyl-N'-(R-thio)ureas” (Shell Oil Company, priority 1982, dated 1985)
